# Laboratory results taken from EP0456514A1, “2-Fluoroneplanocin A and its production” (ASAHI KASEI KOGYO KABUSHIKI KAISHA, priority 1990, dated 1991).
# What was measured:
# [1] = tested on: L5178Y cells; assay: Growth inhibition activity against L5178Y cells; format: cell-based; conditions: for IC50: Mus musculus, L5178Y cells, incubated at 37 °C for 48 hours, cell number by Coulter counter
# Protocol: (1) Growth inhibition activity against L5178Y cells:
# A solution of each test compound is prepared by dissolving the compound in RRMI 1640 medium containing 10% bovine serum. A cell suspension of L5178Y cells, 1.1× 10⁴ cells/ml, each suspension having a volume of 1.8 ml, is added to each test tube. A solution ( 0.2 ml ) of the test compound hereinabove is added thereto and the medium is tightly sealed and incubated at 37 °C for 48 hours. After incubation, the numberof cells is measured using a Coulter counter and the growth ratio of the cells is determined.
# [2] = Single administration toxicity in mice; format: in vivo; conditions: 10 mg/kg, intra peritoneally in mice
# Protocol: 2 - Fluoroneplanocin A can be applied for an anti-neoplastic agent. Amount of dosage can be determined by considering curative effect, route of administration, ages or body weight of patient, and in general 10 - 500 mg/man/day will be applied. Administration can be done by perorally or parenterally, for example intravenous injection or drop infusion or intramuscular administration.
# [3] = target: T1, Adenosine deaminase (Bos taurus, UniProt P56658); assay: Resistance to adenosine deaminase (remaining sample measured by HPLC); format: in vitro ADME, Calf; conditions: for Remaining ratio (%) 0 min. / remaining at 0.5 h, 500 µM: 0.5 mM test sample, adenosine deaminase, 0.05 M Tris-HCl buffer (pH 7.2), 25 °C; for remaining at 0.5 h, 500 µM: bovine, 30min., read-out: Remaining ratio (%) 30min.
# T1 construct: Adenosine deaminase ( Calf inlestine, 400 U/ml glycerin, Boehringer 102091 ); purchased Boehringer 102091; host or cells: calf intestine (tissue-derived enzyme)
# T1 sequence (P56658 1-363): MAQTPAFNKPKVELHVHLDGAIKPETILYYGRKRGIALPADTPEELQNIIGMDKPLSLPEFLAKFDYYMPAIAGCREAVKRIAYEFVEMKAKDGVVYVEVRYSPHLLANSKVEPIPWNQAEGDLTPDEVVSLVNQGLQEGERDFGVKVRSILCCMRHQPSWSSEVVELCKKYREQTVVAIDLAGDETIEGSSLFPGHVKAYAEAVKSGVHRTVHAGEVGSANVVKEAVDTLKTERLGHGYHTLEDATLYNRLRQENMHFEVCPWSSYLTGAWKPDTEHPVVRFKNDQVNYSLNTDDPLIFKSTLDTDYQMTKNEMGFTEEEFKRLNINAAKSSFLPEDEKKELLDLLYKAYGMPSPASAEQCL
# Protocol: (2) Resistance to adenosine deaminase:
# A solution 0.5 mM of each test sample is prepared by dissolving the test sample in 0.05 M Tris-HCl buffer (pH 7.2). Adenosine deaminase ( Calf inlestine, 400 U/ml glycerin, Boehringer 102091 ) is diluled ten times with 0.05 M Tris-HCl buffer (pH 7.2) to prepare an adenosine deaminase solulion.
# 0.5 ml of each sample solulion is mixed with 10 µl of adenosine deaminase solution . The mixtures are allowed to stand in a water bath at 25 °C, and 4 µl samples thereof are pipetted off after 0 and 30 minutes. The remaining sample is measured by HPLC under the following conditions. HPLC: Column : Supersher RP-18-4 Eluent : 15% methanol Flow rate : 1.0 ml/min. Temperature : 50°C
SMILES,IC50 [1],growth inhibitory activity against L5178Y cells as compared with that of known neplanocin A ([1]; relative to neplanocin A),death [2],Remaining ratio (%) 0 min. [3],decomposition by adenosine deaminase ([3]; after 30 minutes of incubation),"remaining at 0.5 h, 500 µM [3]"
"Nc1nc(F)nc2c1ncn2[C@@H]1C=C(CO)[C@@H](O)[C@H]1O [2-Fluoroneplanocin A, 2-fluoroneplanocin A]",0.06 µg/mL,three times higher levels,No death is observed,100%,not decomposed,100%
"Nc1ncnc2c1ncn2[C@@H]1C=C(CO)[C@@H](O)[C@H]1O [neplanocin A, Neplanocin A]",0.2 µg/mL,,,100%,,0%
